Like-named read-outs stand apart in the source and are kept apart here.
What was measured:
male mice of ddY line [1] = test: Survival time under hypoxia (aeration with 96% nitrogen and 4% oxygen); format: in vivo; details: 50 mg/kg, i.p., 60 minutes before aeration with 96% nitrogen and 4% oxygen; time to respiratory arrest
Protocol: In this experiment, 5 to 6-week-old male mice of ddY line (10 individuals per one group) were used after fasting treatment for 24 hours.
Each compound obtained in the present invention was administered intraperitoneally. After 60 minutes of the administration, each mouse was transferred separately into a transparent vessel (capacity, 1,000 ml) equipped with an air exit, and the vessel was aerated with a mixed gas consisting of 96% nitrogen and 4% oxygen at an aeration rate of 5 ℓ/min.
All tested mice died within 180 seconds after the commencement of the gas mixture aeration. Terminal respiration was observed several times prior to the respiratory arrest. Survival time of the control group was roughly in the range of from 96 to 111 seconds.

male mice of ddY line [2] = format: in vivo; details: 50 mg/kg, i.p., 60 minutes before KCN (3.0 mg/kg) tail intravenous injection; for Survival Time ±S.E.: time to respiratory arrest
male mice of ddY line [3] = test: Blood oxygen and carbon dioxide partial pressure; format: in vivo; details: 20 mg/kg, i.p.; blood from abdominal aorta 60 minutes after administration
Protocol: In this experiment, 4-week-old male mice of ddY line (10 individuals per one group) were used after fasting treatment for 24 hours.
After 60 minutes of the administration of each compound of the present invention, each mouse was subjected to ventrotomy under anesthesia with Nembutal® (Dainabot Co., Ltd.; 50 mg/kg, i.p.) to collect blood from abdominal aorta, and the collected blood sample was immediately checked for its oxygen partial pressure (PO₂) and carbon dioxide partial pressure (PCO₂) using a blood-aerotonometer (Model 170, Ciba-Corning).

[4] = system: rats of diabetes mellitus; test: Blood sugar level in streptozotocin-induced diabetes mellitus; format: in vivo, male rats of Wistar line; details: 50 mg/kg
Protocol: In this experiment, 8-week-old male rats of Wistar line (5 individuals per one group) were used after rearing them for 1 week with normal feed. Streptozotocin (40 mg/kg) was administered by tail intravenous injection to obtain rats of diabetes mellitus. Beginning after 1 week of the streptozotocin administration, oral administration of each test drug has been carried out for 1 week, followed by 24 hours of fasting. Thereafter, blood sample was collected from lower abdominal vena cava under anesthesia with Nembutal® (1 ml/kg, i.p.). Serum samples were prepared from the thus collected blood samples and checked for their blood sugar levels, with the results shown in Table 9.

male rats of SHR line = test: Blood pressure in SHR rats; format: in vivo; details: 10 mg/kg, p.o., 2 weeks
Protocol: In this experiment, 12-week-old male rats of SHR line (5 to 6 individuals per one group) were used after rearing them for 1 week with normal feed. Oral administration of each test drug has been carried out for 2 weeks and then blood pressure (mmHg) was measured using a small animal hemomanometer (UR-1000).

erythrocytes = test: Erythrocyte deformability (filtration through 5 µm filter) after oral administration; format: in vivo, male rats of Wistar line; details: 30 mg/kg, p.o.; blood collected 90 minutes after administration; number of filtered erythrocytes
Protocol: In this experiment, 9-week-old male rats of Wistar line (5 to 6 individuals per one group) were used after rearing them for 1 week with normal feed. After 24 hours of fasting, each test drug was administered orally and, 90 minutes thereafter, blood sample was collected from lower abdominal vena cava of each rat under anesthesia with Nembutal® (1 ml/kg, i.p.). Blood samples obtained in this way were checked for their blood clotting time and erythrocyte deformability.
Measuring procedures are as follows.
Erythrocyte deformability ... The collected blood is extruded from a syringe with a constant flow of He in a holder equipped with a filter (5 µm). Weight of blood and the number of erythrocytes filtered during a fixed time are measured and the deformability is expressed based on the number of filtered erythrocytes. The results of these measurements are shown respectively in Tables 11 and 12.

male SD rats = test: Thrombus formation in abdominal vena cava; format: in vivo; details: 30 mg/kg, p.o.; dry weight of thrombus
Protocol: Each of male SD rats of 130 to 210 g in body weight was anesthetized with Nembutal® (50 mg/kg, i.p.) and subjected to median incision ventrotomy to release about a 2 cm portion of abdominal vena cava below the renal vein. Blood flow of the thus released vena cava was temporarily stopped for 5 minutes with 8 hemostatic clips. After recirculating blood for 5 minutes by removing the hemostatic clips, […] was ligated at a position just below the renal vein and the median-incised part was sutured. Two hours after the ligature, the thus treated rat was again subjected to ventrotomy to excise abdominal vena cava. The thus excised blood vessel was cut open on a filter paper which had been moistened with physiological saline, in order to take out thrombus. The thrombus thus obtained was washed with physiological saline to remove adhered blood and the like substances and then dried at 80°C for 12 hours or longer to measure its dry weight. In this instance, each drug to be tested was orally administered 90 minutes before the clipping to examine its effect by single administration on the formation of thrombus. Separately from this, each test drug was administered to 6-week-old male SD rat continuously for 7 days, thrombus was prepared in the eighth day in the same manner as described above and dry weight of the thrombus was measured, in order to examine effect of the continuous 7 day administration on the thrombus formation.

[5] = system: platelet rich plasma (PRP); test: Platelet aggregation in platelet rich plasma after oral administration; format: in vivo, male rat; details: 30 mg/kg, p.o., blood 90 minutes after administration
Protocol: Each drug to be tested was orally administered to each male rat which has been subjected to fasting treatment for 18 to 24 hours. After 90 minutes of the administration, median incision ventrotomy was carried out under ether anesthesia to collect 9 volumes of blood using a syringe filled with 1 volume of 3.8% sodium citrate solution (3.8% sodium citrate solution:blood = 1:9). After thorough mixing, the thus prepared mixture was centrifuged at 800 rpm for 10 minutes at room temperature to collect the resulting supernatant fluid as platelet rich plasma (PRP). The residual portion was centrifuged at 3,000 rpm for 15 minutes at room temperature to collect the resulting supernatant fluid as platelet poor plasma (PPP). The PRP was diluted with the PPP to adjust the number of platelets to 3×10⁵ ± 2×10⁴ cells/µl. A 450 µl portion of the thus diluted PRP was incubated at 37°C for 3 minutes and then mixed with 50 µl of 1×10⁻⁵ M of ADP or 1×10⁻⁵ g/ml of collagen. Thereafter, platelet aggregation test of the mixture was carried out using an aggregometer by measuring transmittance at 940 nm.

[6] = i.o., administered for 1 week beginning 1 week after streptozotocin (40 mg/kg), serum

| SMILES | Survival Time ±S.E. (male mice of ddY line [1]) [s] | Lethality (%) (male mice of ddY line [2]) | Survival Time ±S.E. (male mice of ddY line [2]) [s] | Carbon Dioxide Partial Pressure (male mice of ddY line [3]) [mmHg] | Oxygen Partial Pressure (male mice of ddY line [3]) [mmHg] | Blood Sugar Level ± S.E. ([4]; 168 h) [mg/dL] | Blood Pressure ±S.E. Average (male rats of SHR line) [mmHg] | Blood Pressure ±S.E. Maximum (male rats of SHR line) [mmHg] | Erythrocyte Deformation: Erythrocyte counts ±S.E. (erythrocytes) [× 10⁷] | Antithrombotic Effect: Thrombus weight ±S.E. (male SD rats) [mg] | Platelet Aggregation Ratio ±S.E. ([5]; ADP (1×10⁻⁵ M)) [%] | Platelet Aggregation Ratio ±S.E. ([5]; Collagen (1×10⁻⁵ g/ml)) [%] | Blood Sugar Level ± S.E. [4, 6] [mg/dL] |
| --- | --- | --- | --- | --- | --- | --- | --- | --- | --- | --- | --- | --- | --- |
| CC(CCC1OCC1CO)C1CCC2C3C(O)CC4CC(O)CCC4(C)C3CC(O)C12C [Example 3, (24R)-(25S)-(+)-24,26-epoxy-5β-cholestane-3α,7α,12α,27-tetrol] | 113.2 ± 5.28 | 80 | 107.3 ± 8.6 | 45.5 | 86.1 | 143 ± 6.9 | 150 ± 3.7 | 200 ± 7.7 | 3.55 ± 0.66 | 13.5 ± 1.22 | 42.5 ± 3.81 | 42.5 ± 1.85 |  |
| C[C@H](CCCC(CO)CO)[C@H]1CC[C@H]2[C@@H]3[C@H](O)C[C@@H]4C[C@H](O)CC[C@]4(C)[C@H]3C[C@H](O)[C@]12C [Example 6, 3α,7α,12α,26,27-pentahydroxy-5β-cholestane] | 127.5 ± 9.26 | 80 | 98.7 ± 8.81 | 40.3 | 83.5 |  | 131 ± 3.7 | 178 ± 3.3 | 3.81 ± 0.44 | 13.5 ± 2.11 | 50.1 ± 2.33 | 42.3 ± 3.83 | 138 ± 6.8 |
| C[C@H](CC[C@@H](O)CCO)[C@H]1CC[C@H]2[C@@H]3[C@H](O)C[C@@H]4C[C@H](O)CC[C@]4(C)[C@H]3C[C@H](O)[C@]12C [Illustrative Example 2, 27-nor-(24R)-(+)-3α,7α,12α,24,26-pentahydroxy-5β-cholestane] | 116.3 ± 4.86 | 80 | 95.3 ± 11.12 | 42.1 | 85.4 |  | 145 ± 8.1 | 200 ± 3.5 | 3.62 ± 0.46 | 13.4 ± 2.38 | 51.5 ± 1.55 | 44.4 ± 4.51 | 171 ± 4.7 |
| C[C@H](CO)[C@H](O)CC[C@@H](C)[C@H]1CC[C@H]2[C@@H]3[C@H](O)C[C@@H]4C[C@H](O)CC[C@]4(C)[C@H]3C[C@H](O)[C@]12C [Example 12, (24R)-(25R)-3α,7α,12α,24,26-pentahydroxy-5β-cholestane] | 118.1 ± 3.33 | 90 | 121.3 ± 3.21 | 41.1 | 87.1 |  | 138 ± 9.5 | 173 ± 3.6 | 3.80 ± 0.78 | 12.2 ± 1.88 | 46.5 ± 5.82 | 41.3 ± 3.81 | 163 ± 3.8 |
| C[C@H](CC[C@@H](O)C1COC1)[C@H]1CC[C@H]2[C@@H]3[C@H](O)C[C@@H]4C[C@H](O)CC[C@]4(C)[C@H]3C[C@H](O)[C@]12C [Example 5, (24R)-(+)-26,27-epoxy-5β-cholestane-3α,7α,12α,24-tetrol] | 110.0 ± 5.10 | 80 | 99.5 ± 7.21 | 39.9 | 87.1 |  | 148 ± 3.5 | 181 ± 3.5 | 4.10 ± 0.55 | 11.2 ± 3.12 | 48.5 ± 3.31 | 48.1 ± 2.65 | 122 ± 7.8 |
| C[C@H](CC[C@H](O)[C@@H](C)CO)[C@H]1CC[C@H]2[C@@H]3[C@H](O)C[C@@H]4C[C@H](O)CC[C@]4(C)[C@H]3C[C@H](O)[C@]12C [Example 9, (24S)-(25S)-3α,7α,12α,24,26-pentahydroxy-5β-cholestane] | 126.5 ± 5.21 | 80 | 101.2 ± 10.1 | 43.3 | 88.1 |  | 150 ± 8.9 | 199 ± 5.4 | 4.11 ± 0.44 | 12.5 ± 2.44 | 41.1 ± 1.21 | 49.1 ± 1.11 | 125 ± 6.6 |
| C[C@H](CC[C@@H](O)[C@@H](C)CO)[C@H]1CC[C@H]2[C@@H]3[C@H](O)C[C@@H]4C[C@H](O)CC[C@]4(C)[C@H]3C[C@H](O)[C@]12C [Example 11, (24R)-(25S)-3α,7α,12α,24,26-pentahydroxy-5β-cholestane] | 121.1 ± 2.60 | 80 | 103.0 ± 7.56 | 40.5 | 86.1 |  | 141 ± 9.1 | 188 ± 3.8 | 3.95 ± 0.64 | 14.4 ± 2.01 | 43.3 ± 2.81 | 40.8 ± 1.90 | 187 ± 2.5 |

Reference: patent EP0489933A1, “BILE ALCOHOL AND DRUG CONTAINING THE SAME AS ACTIVE INGREDIENT” (TSUMURA CO., LTD., priority 1990, dated 1992)
